{
  "source": "paper PMC6335420",
  "about": "“The cell cycle regulator GpsB functions as cytosolic adaptor for multiple cell wall enzymes” (Nature Communications, 2019)",
  "molecules": {"B1": {"name": "BsPBP1: B. subtilis class A PBP1 (protein)", "chain": "MSDQFNSREARRKANSKSSPSPKKGKKRKKGGLFKKTLFTLLILFVLGVVGGAVTFAVMVSDAPSLDESKLKTPYSSTIYDKNGKEIAEVGAEKRTYVSIDEIPDVVKEAFIATEDARFYEHHGIDPVRIGGALVANFKDGFGAEGGSTITQQVVKNSLLSHQKTLKRKVQEVWLSIQLERNYSKDEILEMYLNRIYFSPRAYGIGKAAEEFFGVTDLSKLTVEQAATLAGMPQSPTAYNPVKNPDKAEKRRNIVLSLMKKQGFISDSQYNKAKKVAVKDEGVVSQKEYEKASTNKYSAFVEEVMKEIDEKSDVDPSADGLKIYTTLDTKAQDKLDELMDGDTVGFTEGMQGGVTLLDTKNGEVRAIGAGRNQPVGGFNYATQTKAQPGSTIKPILDYGPVIENKKWSTYEQIDDSAYTYSNGKPIRDWDRKYLGPISMRYALAQSRNIPALKAFQAVGKDTAVDFANGLGLGLTKDNVTEAYSIGGFGGNDGVSPLTMAGAYSAFGNNGTYNEPHFVKSIEFNDGTKLDLTPKSKSAMSDYTAFMITDMLKTAVKTGTGQLAQVPGVEVAGKTGTTNFDDNEVKRYNIASGGARDSWFVGYTPQYTAAVWTGMGENEAGKKSLSAEEQKVAKRIFAQLIADVDDGSGSFEKPDSVVEATVEKGSNPAKLAGPNTPSDKKLTEYFVKGTAPSTVSKTYEKEEKEETAKLSGLNVKYDKDNQSLTLSWNYDGDATFAVKQSVDGGSYSEIQNSSAKEAVISGVQPGSVYKFEVTAVSDDGKSTASTSYEVPKAEDDEDKKDQQQTDDEKQDDEKTQDDTQTDDSQKDDGQTDQDQTDDSTNDQDKKQDNTNTNPSDNNNQDQSNDNDNDNSNNQDTSDGDSNSGKNDSTGSDTNKNKTDTSNKTQTNSSSIEKTN", "modifications": "left off: His6, end not stated, cleaved", "notes": "B. subtilis class A PBP1"}, "B2": {"name": "SpPBP1a: S. pneumoniae class A PBP1a (protein)", "chain": "MNKPTILRLIKYLSISFLSLVIAAIVLGGGVFFYYVSKAPSLSESKLVATTSSKIYDNKNQLIADLGSERRVNAQANDIPTDLVKAIVSIEDHRFFDHRGIDTIRILGAFLRNLQSNSLQGGSALTQQLIKLTYFSTSTSDQTISRKAQEAWLAIQLEQKATKQEILTYYINKVYMSNGNYGMQTAAQNYYGKDLNNLSLPQLALLAGMPQAPNQYDPYSHPEAAQDRRNLVLSEMKNQGYISAEQYEKAVNTPITDGLQSLKSASNYPAYMDNYLKEVINQVEEETGYNLLTTGMDVYTNVDQEAQKHLWDIYNTDEYVAYPDDELQVASTIVDVSNGKVIAQLGARHQSSNVSFGINQAVETNRDWGSTMKPITDYAPALEYGVYESTATIVHDEPYNYPGTNTPVYNWDRGYFGNITLQYALQQSRNVPAVETLNKVGLNRAKTFLNGLGIDYPSIHYSNAISSNTTESDKKYGASSEKMAAAYAAFANGGTYYKPMYIHKVVFSDGSEKEFSNVGTRAMKETTAYMMTDMMKTVLSYGTGRNAYLAWLPQAGKTGTSNYTDEEIENHIKTSQFVAPDELFAGYTRKYSMAVWTGYSNRLTPLVGNGLTVAAKVYRSMMTYLSEGSNPEDWNIPEGLYRNGEFVFKNGARSTWSSPAPQQPPSTESSSSSSDSSTSQSSSTTPSTNNSTTTNPNNNTQQSNTTPDQQNQNPQPAQP", "modifications": "left off: T25 or T18 fragment of adenylate cyclase (vectors pKT25, pUT18C), N-terminal, kept", "notes": "S. pneumoniae class A PBP1a"}, "B3": {"name": "BsYpbE130-240^Ser132Cys: disulphide cross-linked dimeric form of BsYpbE130-240 (protein, UniProt P50731 130-240, looked up, variant S132C)", "chain": "EDCKPKEQTAADKKQTAVAEKEDSPNKEEATAAAASSSQSTVQQQEQPAEPVQNVPNRVVKHTVQKKETLYRISMKYYKSRTGEEKIRAYNHLNGNDVYTGQVLDIPLMDE", "modifications": "disulphide-linked dimer"}},
  "key": {"BsGpsB1-68 [1]": {"target": "T1, BsGpsB1-68 (Bacillus subtilis, UniProt P0CI74)", "T1 construct": "His6 (N, cleaved yes); made in house; host or cells: E. coli BL21(DE3)", "T1 sequence (P0CI74 1-68)": "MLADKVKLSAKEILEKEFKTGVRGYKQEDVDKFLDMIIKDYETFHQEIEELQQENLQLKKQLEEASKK", "details": "FP, compared with residue-16-labelled peptide; ref 3 (supplement); cited from earlier work"}, "BsGpsB1-68 [2]": {"target": "T1, BsGpsB1-68", "type": "binding", "details": "FP", "from_the_text": "(§1) 75 the BsGpsB5-64:BsPBP11-17 complex."}, "SpGpsB1-63Asp33Ala": {"target": "T2, SpGpsB1-63Asp33Ala (Streptococcus pneumoniae, UniProt Q8DR57, D33A)", "T2 construct": "His6 (N, cleaved yes); made in house; host or cells: E. coli BL21(DE3)", "T2 sequence (Q8DR57 1-63 D33A)": "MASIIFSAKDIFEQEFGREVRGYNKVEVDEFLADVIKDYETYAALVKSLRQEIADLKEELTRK", "assay": "Fluorescence polarisation binding to SpGpsB1-63Asp33Ala", "details": "FP, SpGpsB1-63Asp33Ala relative to wild-type SpGpsB1-63", "from_the_text": "as §1"}, "SpGpsB1-63": {"target": "T3, SpGpsB1-63 (Streptococcus pneumoniae, UniProt Q8DR57)", "T3 construct": "The SpGpsB1-63 expression construct (pET28SpGpsB1-63) was prepared by PCR amplification of gpsB; His6 (N, cleaved yes); made in house; host or cells: E. coli BL21(DE3)", "T3 sequence (Q8DR57 1-63)": "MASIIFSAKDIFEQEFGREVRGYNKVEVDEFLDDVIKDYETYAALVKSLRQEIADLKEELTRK", "assay": "Fluorescence polarisation binding to SpGpsB1-63", "details": "FP", "from_the_text": "as §1"}, "GpsB": {"test_system": "GpsB", "assay": "Displacement of pre-bound PBP peptides from GpsB", "type": "binding", "details": "100-fold molar excess of free L-arginine"}, "BsYrrS": {"test_system": "BsYrrS", "assay": "BACTH interaction with BsYrrS", "type": "cell-based, Bacillus subtilis", "details": "E. coli BTH101, nutrient agar, 30 °C"}, "SpGpsB": {"test_system": "SpGpsB", "assay": "BACTH interaction with SpGpsB", "type": "cell-based, Streptococcus pneumoniae", "details": "E. coli BTH101, 30 °C, 36-40 h", "from_the_text": "The target genes were amplified by the PCR from S. pneumoniae D39 chromosomal DNA. PCR fragments for pbp2a, mreC, pbp1a, pbp2x and pbp2b were purified, digested with appropriate restriction enzymes and cloned into the corresponding sites of the pKT25/pUT18C vectors to generate plasmids encoding the corresponding hybrid proteins fused at the C-terminal ends of the T25 and T18 fragments, respectively. Plasmids pKNT25-gpsB/pUT18-gpsB, pKNT25-stkP/pUT18-stkP and pKNT25-ezrA/pUT18-ezrA were already constructed. The mutated and truncated gpsB and pbp2a alleles were amplified from their respective DNA templates and the corresponding PCR products cloned into the corresponding sites of the BACTH vectors as described above for the wild-type alleles. E. coli DH5α transformants were selected on LB agar plates containing ampicillin (100 μg^−1mL^−1) or kanamycin (50 μg^−1mL^−1) and 0.4% glucose to repress leaky expression.\nBACTH experiments, each pair of plasmids was co-transformed into the E. coli cya- strain BTH101 and co-transformation mixtures were spotted onto LB agar plates supplemented with ampicillin ([…]), kanamycin ([…]) and X-Gal (40 μg^−1mL^−1), followed by incubation at 30 °C. Plates were inspected and photographed after 24 and 40 h. Plasmid pairs pKNT25/pUT18 and pKT25-zip/pUT18C-zip were used as negative and positive controls, respectively. […]"}, "[3]": {"assay": "Peptidoglycan pulldown assay", "type": "binding, Bacillus subtilis", "details": "25 µg protein + 66 µg PG in 100 µL PBS, room temperature 30 min, SDS-PAGE", "method": "PG pulldown assays were carried out in PBS buffer. B. subtilis PG (SigmaAldrich) was prepared as a 10 mg^−1 mL^−1 stock solution in PBS containing 0.02% sodium azide. 25 µg of protein were added to a 100 µL sample containing 66 µg of PG and the mixture incubated with gentle agitation at room temperature for 30 min. The mixture was centrifuged at 16,000 × g for 7 min, the supernatant removed and the pellet resuspended in 1 mL of ice-cold PBS and immediately centrifuged for 2 min at 16,000 × g. The pellet was resuspended in 1 mL of the appropriate buffer and centrifuged for 2 min at 16,000 × g. Finally the pellet was boiled for 3 min in 60 μL SDS-PAGE loading buffer before analysis by SDS-PAGE; the SDS-PAGE loading buffer lacked reducing agents for YpbE130-240^Ser132Cys samples."}},
  "note": "Read-outs that look alike come from different tables or passages of the source. Residues, ends and D or L forms follow the SMILES beside them. *: point of attachment. Fluorescein(5-Mal) = O=C1OC2(c3ccc(O)cc3Oc3cc(O)ccc32)c2ccc(N3C(=O)CC(*)C3=O)cc21; X1 = CN(C)c1ccc2c(-c3ccc(N4C(=O)CC(*)C4=O)cc3C(=O)[O-])c3ccc(=[N+](C)C)cc-3oc2c1",
  "data": [
    {"molecule": "CSCC[C@H](NC(=O)[C@H](CO)NC(=O)CN)C(=O)N[C@@H](C)C(=O)N[C@@H](CC(=O)O)C(=O)N[C@@H](CCC(N)=O)C(=O)N[C@@H](Cc1ccccc1)C(=O)N[C@@H](CC(N)=O)C(=O)N[C@@H](CO)C(=O)N[C@@H](CCCNC(=N)N)C(=O)N[C@@H](CCC(=O)O)C(=O)N[C@@H](C)C(=O)N[C@@H](CCCNC(=N)N)C(=O)N[C@@H](CCCNC(=N)N)C(=O)N[C@@H](CCCCN)C(=O)N[C@@H](C)C(=O)N[C@@H](CC(N)=O)C(=O)N[C@@H](CO)C(=O)N[C@@H](CCCCN)C(=O)N[C@@H](CO)C(=O)N[C@@H](CO)C(=O)N1CCC[C@H]1C(=O)N[C@@H](CO)C(=O)N1CCC[C@H]1C(=O)N[C@@H](CCCCN)C(=O)N[C@@H](CCCCN)C(=O)NCC(=O)N[C@@H](CCCCN)C(=O)N[C@@H](CCCCN)C(=O)N[C@@H](CCCNC(=N)N)C(=O)N[C@@H](CCCCN)C(=O)N[C@@H](CCCCN)C(=O)N[C@@H](CSC1CC(=O)N(c2ccc3c(c2)C(=O)OC32c3ccc(O)cc3Oc3cc(O)ccc32)C1=O)C(=O)NCC(=O)O", "note": "(stereo partly drawn) [Fluorescein-BsPBP11-32] (H-GSMADQFNSREARRKANSKSSPSPKKGKKRKKC(Fluorescein(5-Mal))G-OH; N-terminus and C-terminus assumed)", "values": [
      {"measurement": "affinity of residue-31-labelled peptide (in words)", "setting": "BsGpsB1-68 [1]", "value": "same affinity"},
      {"measurement": "binding to BsGpsB1-68 (in words)", "setting": "BsGpsB1-68 [2]; listed as BsPBP1_1-32 peptide labelled with fluorescein at position 31", "value": "the measured affinity was the same as if the fluorophore was at position 16"},
      {"measurement": "binding to BsGpsB1-68 (in words)", "setting": "BsGpsB1-68 [2]; listed as peptide labelled at the C-terminus with fluorescein", "value": "same affinity as a peptide labelled"}
    ]},
    {"molecule": "CC[C@H](C)[C@H](NC(=O)[C@@H]1CCCN1C(=O)[C@H](CSC1CC(=O)N(c2ccc(-c3c4ccc(=[N+](C)C)cc-4oc4cc(N(C)C)ccc34)c(C(=O)[O-])c2)C1=O)NC(=O)[C@@H](NC(=O)[C@H](CCC(N)=O)NC(=O)[C@H](C)NC(=O)[C@H](CC(C)C)NC(=O)[C@H](CCCCN)NC(=O)[C@H](CCCCN)NC(=O)[C@H](CCCNC(=N)N)NC(=O)[C@H](CC(=O)O)NC(=O)[C@H](CO)NC(=O)[C@H](CCCNC(=N)N)NC(=O)[C@H](CO)NC(=O)[C@H](CCCNC(=N)N)NC(=O)[C@H](CCCNC(=N)N)NC(=O)[C@H](CC(C)C)NC(=O)[C@@H](NC(=O)[C@@H](NC(=O)[C@H](CO)NC(=O)[C@H](CC(=O)O)NC(=O)[C@H](CO)NC(=O)[C@H](CC(=O)O)NC(=O)[C@H](CCSC)NC(=O)[C@H](CO)NC(=O)CN)[C@@H](C)O)[C@@H](C)CC)C(C)C)C(=O)O", "note": "(stereo partly drawn) [TAMRA-SpPBP2a23-45] (H-GSMDSDSTILRRSRSDRKKLAQVC(X1)PI-OH)", "values": [
      {"measurement": "reduction in affinity on GpsB mutation", "setting": "SpGpsB1-63Asp33Ala", "value": "~ 40 fold"},
      {"measurement": "binding to SpGpsB1-63 (in words)", "setting": "SpGpsB1-63", "value": "interacts"}
    ]},
    {"molecule": "N=C(N)NCCC[C@H](N)C(=O)O", "note": "[L-arginine]", "values": [
      {"measurement": "displacement of pre-bound PBP peptides from GpsB", "setting": "GpsB", "value": "does not displace pre-bound PBP peptides from GpsB"}
    ]},
    {"molecule": "B1", "values": [
      {"measurement": "BACTH interaction with BsYrrS", "setting": "BsYrrS", "value": "interacted"}
    ]},
    {"molecule": "B2", "values": [
      {"measurement": "BACTH interaction with SpGpsB", "setting": "SpGpsB", "value": "interacted"}
    ]},
    {"molecule": "B3", "values": [
      {"measurement": "binding to peptidoglycan", "setting": "[3]", "value": "enhanced considerably relative to the monomeric, cysteine-free version"}
    ]}
  ]
}
